Measurements published in patent US20210283220A1, “ANTIBODY MOLECULE-DRUG CONJUGATES AND USES THEREOF” (priority 2017, published 2021).
No end group written: not given here.

How the values were obtained:
E. coli = experiment: Minimal inhibitory concentration (MIC) assay, broth microdilution; assay type: cell-based, Escherichia coli; conditions: for MIC Eco 25922: E. coli 25922; for MIC Eco 43745: E. coli 43745, in the presence of PBS
Protocol: (§1) Daughter plates were prepared as follows.
(§2) Cultured media were prepared as follows.

P. aeruginosa 27853 = experiment: MIC / killing activity in the presence of human serum (hsMIC, 50% human serum); assay type: cell-based, Pseudomonas aeruginosa; conditions: for 50% hsMIC Pae 27853: P. aeruginosa 27853, 50% human serum; for hsMIC/MIC: ratio
Protocol: In an embodiment, the MIC is determined in the presence of phosphate-buffered saline (PBS). In an embodiment, the MIC or hsMIC is determined on per ADC basis. In an embodiment, the MIC or hsMIC is determined on per payload or antimicrobial peptide basis.

P. aeruginosa [1] = experiment: Minimal inhibitory concentration (MIC) assay, broth microdilution; assay type: cell-based, Pseudomonas aeruginosa
P. aeruginosa ATCC 27853 = experiment: Resistance rate determination (standard and micro-dotting protocols); assay type: cell-based, Pseudomonas aeruginosa
Excerpt: . These rates are considered favorable when compared to published rates in the 10^−5 to 10^−8 range. […]

K. pneumoniae = experiment: Minimal inhibitory concentration (MIC) assay, broth microdilution; assay type: cell-based, Klebsiella pneumoniae; conditions: K. pneumoniae 700603; in the presence of PBS
Protocol: as §1, §2

S. aureus = experiment: as above; assay type: cell-based, Staphylococcus aureus; conditions: S. aureus 29213; in the presence of PBS
Protocol: as §1, §2

P. aeruginosa [2] = experiment: Microbial killing assay (percent killing, CFU); assay type: cell-based, Pseudomonas aeruginosa; conditions: for 50% Killing Activity, BAA-2108: MDR P. aeruginosa strain BAA-2108; for 50% Killing Activity, BAA-2110: MDR P. aeruginosa strain BAA-2110; for 50% Killing Activity, BAA-2114: MDR P. aeruginosa strain BAA-2114; for 50% Killing Activity, Pae 27853: P. aeruginosa strain 27853, Table 10
Protocol: Bactericidal assay: Direct killing activity of the ADC can be measured against two well described laboratory strains of P. aeruginosa (PA14 and PA01) and no less than three clinical strains of P. aeruginosa, including MDR and Pan-resistant strains. These assays are conducted in the absence of complement or effector cells. Activity in this assay can provide insight on the inherent killing activity of the ADC.
The microbial killing assay was performed as follows. Bacterial cells were grown aerobically overnight on agar plates at 37° C. Overnight plates were used to seed 30 ml cultures of growth media in 250 ml vented flasks. Cultures were grown aerobically at 37° C., shaking at 150 rpm. Growth was monitored at A600 nM and bacterial cells were harvested at mid-log growth. Ten ml of culture was pelleted at 4000×G for 10 minutes and washed one time with PBS plus 1% BSA before re-suspending in 2 ml PBS+BSA. […] Cultures were diluted to 1×10^4 cells/ml in PBS plus BSA. Test articles were diluted in PBS+1% BSA and 50 μl per concentration tested was loaded into a 96 well polypropylene microtiter plate. Fifty μl of diluted culture was added to all test wells as well as no compound control wells. Plates were shaken and incubated at 37° C., 90 minutes, static. Ten μl from each assay well was plated onto agar plates and incubated at 37° C. overnight. Percent killing was determined by the CFU for test wells compared to the CFU for no compound control wells.

[3] = P. aeruginosa 27853, in the presence of PBS
[4] = P. aeruginosa 39324, in the presence of PBS

(MAL)-(EG3)-GIGKFLKKAKKFGKAFVKILKK [peptide 21]
MIC Eco 25922 (E. coli): 8 µg/mL

Ceftazadime [reference compound]
50% hsMIC Pae 27853 (P. aeruginosa 27853): 1 µg/mL | hsMIC/MIC (P. aeruginosa 27853): 1 | MIC Pae 27853 (P. aeruginosa [1]; [3]): 1 µg/mL | MIC Pae 39324 (P. aeruginosa [1]; [4]): 1 µg/mL | MIC Pae 27853 (P. aeruginosa [1]; strain Pae27853): 1 µg/mL | MIC Pae 39324 (P. aeruginosa [1]; strain Pae39324): 2 µg/mL

Colistin [reference compound]
resistance rate, Micro-dotting (P. aeruginosa ATCC 27853; 2x MIC): 1.08E−07 | resistance rate, Standard (P. aeruginosa ATCC 27853; 2x MIC): 6.50E−08 | resistance rate, Micro-dotting (P. aeruginosa ATCC 27853; 4x MIC): 2.10E−09 | resistance rate, Standard (P. aeruginosa ATCC 27853; 4x MIC): 1.60E−09 | resistance rate, Micro-dotting (P. aeruginosa ATCC 27853; 8x MIC): <1.1E−09 | resistance rate, Standard (P. aeruginosa ATCC 27853; 8x MIC): <1.6E−09

GAFGNFLKGVAKKAGLKILSIAQCKLFGTC [peptide 70]
MIC Pae 27853 (P. aeruginosa [1]; P. aeruginosa 27853): 8 µg/mL | MIC Eco 25922 (E. coli): 4 µg/mL

GGG-D-Dab-cyclic(L-Dab-L-Dab-D-Leu-L-Phe-L-Dab-L-Dab-L-Leu) [GGG-Octapeptin]
MIC Kpn 700603 (K. pneumoniae): >128 µg/mL | 50% hsMIC Pae 27853 (P. aeruginosa 27853): 2 µg/mL | hsMIC/MIC (P. aeruginosa 27853): 1 | MIC Pae 27853 (P. aeruginosa [1]; [3]): 2 µg/mL | MIC Pae 39324 (P. aeruginosa [1]; [4]): 2 µg/mL | MIC Sau 29213 (S. aureus): >128 µg/mL

GGGGIGKFLKKAKKFGKAFVKILKK [Peptide P261]
MIC Eco 43745 (E. coli): 4 µg/mL

GGGGLRKRLRKFRNKIKEKLKKIGQKIQGLLPKLA [Peptide P271]
MIC Eco 43745 (E. coli): 4 µg/mL

GGGGLRRLGRKIAHGIKKYGPTILRIIRIAG [Peptide P293]
MIC Kpn 700603 (K. pneumoniae): 4 µg/mL | MIC Pae 27853 (P. aeruginosa [1]; [3]): 8 µg/mL | MIC Pae 39324 (P. aeruginosa [1]; [4]): 2 µg/mL | MIC Eco 43745 (E. coli): 4 µg/mL

GGGGRFKRFRKKFKKLFKKLSPVIPLLHLG [Peptide P295]
50% hsMIC Pae 27853 (P. aeruginosa 27853): 2 µg/mL | hsMIC/MIC (P. aeruginosa 27853): 0.5 | MIC Pae 27853 (P. aeruginosa [1]; [3]): 4 µg/mL | MIC Pae 39324 (P. aeruginosa [1]; [4]): 4 µg/mL | MIC (P. aeruginosa ATCC 27853) (P. aeruginosa [1]): 1 to 4 µg/mL | 50% Killing Activity, BAA-2108 (P. aeruginosa [2]): 0.6 µg/mL | 50% Killing Activity, BAA-2110 (P. aeruginosa [2]): 0.6 µg/mL | 50% Killing Activity, BAA-2114 (P. aeruginosa [2]): 0.14 µg/mL | 50% Killing Activity, Pae 27853 (P. aeruginosa [2]): 0.3 µg/mL

GGGGSGGGGSGIGKFLKKAKKFGKAFVKILKK [peptide 23]
MIC Eco 25922 (E. coli): 8 µg/mL

GGGKFFRKLKKSVKKRAKEFFKKPRVIGVSIPF [Peptide P297]
50% hsMIC Pae 27853 (P. aeruginosa 27853): 8 µg/mL | hsMIC/MIC (P. aeruginosa 27853): 2 | MIC Pae 27853 (P. aeruginosa [1]; [3]): 4 µg/mL | MIC Pae 39324 (P. aeruginosa [1]; [4]): 2 µg/mL | MIC (P. aeruginosa ATCC 27853) (P. aeruginosa [1]): 1 to 4 µg/mL | MIC Eco 43745 (E. coli): 2 µg/mL | 50% Killing Activity, BAA-2108 (P. aeruginosa [2]): 0.28 µg/mL | 50% Killing Activity, BAA-2110 (P. aeruginosa [2]): 0.28 µg/mL | 50% Killing Activity, BAA-2114 (P. aeruginosa [2]): 0.07 µg/mL | 50% Killing Activity, Pae 27853 (P. aeruginosa [2]): 0.04 µg/mL

GGGKRFKKFFKKLKNSVKKRAKKFFKKPRVIGVSIPF [Peptide P296]
50% hsMIC Pae 27853 (P. aeruginosa 27853): 1 µg/mL | hsMIC/MIC (P. aeruginosa 27853): 0.25 | MIC Pae 27853 (P. aeruginosa [1]; [3]): 4 µg/mL | MIC Pae 39324 (P. aeruginosa [1]; [4]): 2 µg/mL | MIC Eco 43745 (E. coli): 4 µg/mL

GGGLLGDFFRKSKEKIGKEFKRIVQRIKDFLRNLVPRTES [Peptide P265]
MIC Kpn 700603 (K. pneumoniae): >128 µg/mL | 50% hsMIC Pae 27853 (P. aeruginosa 27853): >128 µg/mL | hsMIC/MIC (P. aeruginosa 27853): >4 | MIC Eco 43745 (E. coli): 8 µg/mL

GGGRGLRRLGRKIAHGVKKYGPTVLRIIKKYG [Peptide P294]
MIC Kpn 700603 (K. pneumoniae): 8 µg/mL | MIC Eco 43745 (E. coli): 2 µg/mL

GIGKFLKKAKKFGKAFVKILKK [peptide 109]
MIC Pae 27853 (P. aeruginosa [1]; P. aeruginosa 27853): 8 µg/mL | MIC Eco 25922 (E. coli): 4 µg/mL

GIGKFLKKAKKFGKAFVKILKK-NH2 [Peptide P32]
resistance rate, Micro-dotting (P. aeruginosa ATCC 27853; 2x MIC): 1.08E−07 | resistance rate, Micro-dotting (P. aeruginosa ATCC 27853; 4x MIC): 9.59E−08 | resistance rate, Standard (P. aeruginosa ATCC 27853; 4x MIC): <1.6E−09 | growth of resistant colonies, standard protocol (P. aeruginosa ATCC 27853; 4×MIC and above): no growth was observed | resistance rate, Micro-dotting (P. aeruginosa ATCC 27853; 8x MIC): 8.02E−09 | resistance rate, Standard (P. aeruginosa ATCC 27853; 8x MIC): <1.6E−09

GIGKFLKKAKKFGKAFVKILKKGGGGSGGGGS [peptide 24]
MIC Pae 27853 (P. aeruginosa [1]; P. aeruginosa 27853): 8 µg/mL

GLRKRLRKFRNKIKEKLKKIGQKIQGLLPKLA [Peptide 33]
MIC Pae 27853 (P. aeruginosa [1]; P. aeruginosa 27853): 8 µg/mL | MIC Eco 25922 (E. coli): 8 µg/mL

RLGNFFRKAKKKIGRGLKKIGQKIKDFLGNLVPRTES [peptide 128]
MIC Pae 27853 (P. aeruginosa [1]; P. aeruginosa 27853): 8 µg/mL
